Data from US20200138921A1, “METHODS OF PREVENTING AND TREATING DISEASES CHARACTERIZED BY SYNAPTIC DYSFUNCTION AND NEURODEGENERATION INCLUDING ALZHEIMER'S DISEASE” (The Trustees of Columbia University in the City of New York, priority 2017, published 2020).

What was measured:
J20 mice [1] = experiment: Long-term potentiation recordings, hippocampal slices of J20 mice; assay type: in vivo; details: single TOP injection 275 μg, vs PBS treated J20 mice
Method: Long-term potentiation (LTP) recordings were performed by positioning glass electrodes filled with artificial cerebrospinal fluid (ACSF) in the CA1 stratum radiatum to record Field Excitatory Post-Synaptic Potentials (fEPSPs) evoked by local stimulation (0.1 ms) of Schaffer collateral fibers using a bipolar concentric electrode placed laterally to the recoding electrode (approximately 150 μm). Following a steady baseline of 15 minutes, potentiation was induced with three theta-burst stimulations (TBS; 15 second interval), each one involving a single train of 10 bursts at 5 Hz, where each burst was composed of four pulses at 100 Hz (strong stimulation). The fEPSP slopes following tetanic stimulation were normalized to the average of the slopes of the fEPSPs acquired during the baseline.
(§1) Controls were wild-type mice and J20 mice injected with PBS.

Ube3A [2] = experiment: Ube3A protein in hippocampus of J20 AD mice; assay type: in vivo; details: single bilateral TOP injection 275 μg at 9-10 months, measured at 11-12 months
Text: The J20 transgenic mouse line also used in the studies expresses a mutated human APP (hAPP: K670N/M671L and V717F) under the control of the platelet-derived growth factor promoter (Mucke et al. 2000). These mice have deficits in learning and memory, inhibition of long-term potentiation, loss of dendritic spines, profuse amyloid plaques, and increased phosphorylation of the tau protein. These mice also have increased RhoA-GTP activity and progressive decrease in spinal density when treated with oligomeric Aβ. See Pozueta et al. 2013.
(§2) Whole frozen mouse hippocampi, human brain specimens, and cultured cells were homogenized in RIPA buffer (ThermoFisher) supplemented with protease and phosphatase inhibitor cocktail (ThermoFisher), using a Teflon dounce homogenizer and centrifuged at 14,000 rpm for 10 minutes at 4° C. Supernatants were collected, normalized by BCA assay (ThermoFisher), and prepared for loading using sample buffer (SB) 4× (ThermoFisher) and dithiothreitol (DTT) 10× (ThermoFisher).
as §1

NMDAR1 = experiment: Western blot of NMDAR1 in hippocampal neurons; assay type: cell-based, rat; details: neurons pretreated with 300 nM TOP, oAβ for 24 hours
Method: as §2
To further test whether increasing Ube3A could rescue the effects of oAβ, cultured primary hippocampal neurons (14 DIV) were pretreated with 300 nM of TOP or control PBS. The neurons were then treated with oAβ for 24 hours, and whole cell lysates prepared for Western blot analysis, or fixed for microscopy.
Cells were also assessed for localization of PSD95 and NMDAR1, markers of postsynaptic terminals. Cells treated with TOP had increased levels of PSD95 and NMDAR1 (FIGS. 11B and 11C).

J20 mice [3] = experiment: Dendritic spine density in hippocampus of J20 mice; assay type: in vivo; details: single TOP injection 275 μg
Method: (§3) The protocol for diolistic labeling of neurons was adapted from Gan et al. 2000 and Gan et al. 2009. Briefly, 100 mg of tungsten particles (1.1 μm diameter; Bio-Rad) were thoroughly precipitated with 5.0 mg of lipophilic dye (DiI; ThermoFisher) and dissolved in 100 μl of methylene chloride. Dye-coated particles were shot 2-3 times into the cells using the Helios gene gun system (Bio-Rad) and left in 0.1 M PBS overnight to allow dye diffusion along neuronal processes. Cells were post-fixed with 4% paraformaldehyde (Pierce) for 1 hour to preserve staining, then mounted onto glass slides using Gel Mount (Biomeda) and stored at 4° C. in the dark.
(§4) Labeled neurons were imaged using the Laser Scanning Microscope (LSM) 510 Meta confocal microscope (Zeiss), equipped with 40×1.3 NA and 100×1.4 NA oil-immersion objectives. The NIH Image software program ImageJ was used the quantify diolistic-labeled cultured neurons. An average of 12 compressed images (20 μm thick) consisting of pyramidal neurons were quantified for each treatment. Spines were counted with NeuronStudio software in a blinded manner and spine density was represented in number of spine per μm dendritic length. Statistical analysis was performed using the statistics package GraphPad Prism.
as §1

phospho-tau = experiment: Western blot of phospho-tau in J20 mice; assay type: in vivo; details: TOP treated J20 mice vs control J20
Text: All chemicals used were of the highest grade available. Antibodies used include the following: rabbit anti-Ube3A (Cell Signaling), mouse anti-RhoA (Santa Cruz), rabbit anti-Arc (Santa Cruz), mouse anti-GluR1 (Millipore), rabbit anti-Ephexin-5 (Pierce and Abcam), rabbit anti-phospho-c-Abl (Cell Signaling), rabbit anti-GAPDH (Cell Signaling), rabbit anti-HA (Cell Signaling), anti-PSD95 (Cell Signaling), rabbit anti-NMDAR1 (Millipore), and anti-phospho-tau PHF13 (Cell Signaling).
as §2

wild-type mice = experiment: Dendritic spine density in hippocampus of wild-type mice; assay type: in vivo; details: single TOP injection 275 μg
Method: as §3, §4
Controls were wild type mice injected with PBS.

Ube3A [4] = experiment: Ube3A levels in astrocyte-enriched cultures; assay type: cell-based, rat; details: astrocyte-enriched cultures treated with oAβ (results not shown)
Method: Since Ube3A is also expressed in astrocytes (Grier et al. 2015), it was determined whether Ube3A levels were also altered in these cells.

Ube3A [5] = experiment: Ube3A protein degradation in B35 cells (cycloheximide chase); assay type: cell-based, rat; details: CHX and oAβ for 4, 8 and 16 hours
Method: FIG. 5A is a graph showing the quantification of Western blots of the levels of Ube3A and GAPDH (as house-keeping protein) of B35 cells treated with cycloheximide (CHX) or CHX and oAβ for 4, 8 and 16 hours. […] Graphs represent mean values and standard deviation. Significance determined by one-way ANOVA followed by Tukey Post Hoc multiple comparisons.

[6] = tested on: primary hippocampal neurons; assay type: cell-based, rat; details: neurons 21 DIV, oAβ for 24 hours (data not shown)
c-Abl = experiment: Western blot of phosphorylated c-Abl; assay type: cell-based, rat; details: oAβ treated vs vehicle (FIG. 4)
Text: FIG. 4A is a quantification of Western blots of phosphorylated c-Abl in vehicle treated (control) and DPH treated hippocampal neurons. FIG. 4B is a quantification of Western blots of phosphorylated Ube3A in vehicle treated (control) and DPH treated hippocampal neurons. […] FIG. 4D is a quantification from Western blots of phosphorylated Ube3A in vehicle treated (control), oAβ treated, and oAβ with STI treated hippocampal neurons. Graphs represent mean values and standard deviation. Significance determined by unpaired student's t-test in FIGS. 4A and 4B, and one-way ANOVA followed by Tukey Post Hoc multiple comparisons in FIGS. 4C and 4D.
It was hypothesized that oAβ could affect the ligase function of Ube3A. One important regulatory mechanism of Ube3A is through c-Abl-mediated phosphorylation tyrosine residue 636 (Y636), which impairs its E3 ligase activity (Chan et al. 2013). […] Since phospho-Ube3A antibodies are not available it was decided to test the hypothesis in B35 neuroblastoma cell line overexpressing HA-tagged Ube3A for immunoprecipitation.

Row | Molecule | LTP in hippocampal slices (J20 mice [1]) | levels of Ube3A in the hippocampus (Ube3A [2]) | levels of NMDAR1 (NMDAR1) | dendritic spine density (J20 mice [3]) | phospho-tau levels (phospho-tau) | dendritic spine density (wild-type mice) | Ube3A levels (Ube3A [4]) | degradation rate of the Ube3A protein (Ube3A [5]) | cell death [6] | c-Abl phosphorylation (c-Abl)
1 | CC[C@@]1(O)C(=O)OCc2c1cc1n(c2=O)Cc2cc3c(CN(C)C)c(O)ccc3nc2-1 [TOP, topotecan] | Enhancement | increased | increased | significant increase | decreased | significant increase | – | – | – | –
2 | oAβ: synthetic soluble oligomeric Aβ1-42 | – | – | – | – | – | – | modest, but significant increase | significantly increased | No cell death | induces
